Experimental data as given in US7067476B2, “Peptide derivative, and pharmaceutically acceptable salt thereof, process for producing the same, and use thereof” (priority 2001, dated 2006).

Columns and labels:
[1] = tested on: Arg-gingipain (RGP); assay: Inhibitory activity against Arg-gingipain (RGP), substrate Cbz-Phe-Arg-MCA; type: biochemical, Porphyromonas gingivalis
Description: (§1) The inhibitory activity against Lys-gingipain (KGP) was measured by the method of Abe et al. (Journal Biochemistry, 1998, Vol. 123, 305–312) using Cbz-His-Glu-Lys-MCA as a substrate. The inhibitory activity against Arg-gingipain (RGP) was measured by the method of Kadowaki et al. (Journal Biological Chemistry, 1994, Vol. 269, 21371–21378) using Cbz-Phe-Arg-MCA as a substrate. More specifically, the measurements were carried out in the following manner: 100 μl of 50 mM L-cystein, 200 μl of a 0.1 M sodium phosphate buffer solution (pH 7.5), 20 μl of 12.3 nM KGP or RGP solution containing 0.05% “Brij35” (a tradename, product of Aldrich, polyoxyethylene(23) lauryl ether), 80 μl of distilled water and 100 μl of a dimethyl sulfoxide solution of a compound according to the invention were mixed and preincubated at 37° C. for 5 minutes. Thereafter, 500 μl of a 0.1% dimethyl sulfoxide solution containing 20 μM Cbz-His-Glu-Lys-MCA (for KGP) or Cbz-Phe-Arg-MCA (for RGP) was added, followed by incubation at 40° C. for 10 minutes. An acetic acid buffer solution (pH 5.0) containing 10 mM iodoacetamide was then added to stop the enzyme reaction. The fluorescence intensity (F) at 460 nm upon excitation at 380 nm was measured.

[2] = biological target: Lys-gingipain (KGP) (Porphyromonas gingivalis, UniProt B2RLK2); assay: Inhibitory activity against Lys-gingipain (KGP), substrate Cbz-His-Glu-Lys-MCA; type: biochemical; conditions: read-out: Enzyme inhibitory activity (%) KGP
Description: as §1

Cl.NCCCC[C@H](NC(=O)[C@H](CCC(=O)O)NC(=O)OCc1ccccc1)C(=O)C(=O)N[C@@H](CCCNC(N)=N[N+](=O)[O-])C(=O)C(=O)NCCc1ccccc1 [Example 3]
Enzyme inhibitory activity (%) RGP ([1]; concentration 10^−4 mol/l): 99.4% | Enzyme inhibitory activity (%) RGP ([1]; concentration 10^−5 mol/l): 96.8% | Enzyme inhibitory activity (%) RGP ([1]; concentration 10^−6 mol/l): 81.1% | inhibition at 1 µM [2]: 99.9% | inhibition at 10 µM [2]: 99.9% | inhibition at 100 µM [2]: 100%
